Experimental data taken from patent US12371428B2 (Exelixis, Inc., priority 2019, dated 2025).

Key:
Type in all cases: cell-based
[1] = molecular target: Met (phospho-Met, HGF-stimulated PC-3 prostate cancer cells) (Homo sapiens (Human), UniProt P08581); test: Met autophosphorylation ELISA in PC-3 cells (Example F); conditions: cellular activity; Met autophosphorylation ELISA in PC-3 cells; read-out: c-Met IC50
Method in brief: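 Compounds were tested on HGF-stimulated PC-3 cells. After 24 h culture and 3 h serum starvation, cells got compound for 1 h and 100 ng/mL HGF for 10 min, and Met tyrosine phosphorylation was measured by ELISA.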

[2] = molecular target: Mer (phospho-Mer, MERTK-transfected 293A cells) (Homo sapiens (Human), UniProt Q12866); test: Mer autophosphorylation ELISA in transient transfected 293A cells (Example H); conditions: cellular activity; Mer autophosphorylation ELISA in transient transfected 293A cells
Chain of Mer (phospho-Mer, MERTK-transfected 293A cells) (Q12866 21-999): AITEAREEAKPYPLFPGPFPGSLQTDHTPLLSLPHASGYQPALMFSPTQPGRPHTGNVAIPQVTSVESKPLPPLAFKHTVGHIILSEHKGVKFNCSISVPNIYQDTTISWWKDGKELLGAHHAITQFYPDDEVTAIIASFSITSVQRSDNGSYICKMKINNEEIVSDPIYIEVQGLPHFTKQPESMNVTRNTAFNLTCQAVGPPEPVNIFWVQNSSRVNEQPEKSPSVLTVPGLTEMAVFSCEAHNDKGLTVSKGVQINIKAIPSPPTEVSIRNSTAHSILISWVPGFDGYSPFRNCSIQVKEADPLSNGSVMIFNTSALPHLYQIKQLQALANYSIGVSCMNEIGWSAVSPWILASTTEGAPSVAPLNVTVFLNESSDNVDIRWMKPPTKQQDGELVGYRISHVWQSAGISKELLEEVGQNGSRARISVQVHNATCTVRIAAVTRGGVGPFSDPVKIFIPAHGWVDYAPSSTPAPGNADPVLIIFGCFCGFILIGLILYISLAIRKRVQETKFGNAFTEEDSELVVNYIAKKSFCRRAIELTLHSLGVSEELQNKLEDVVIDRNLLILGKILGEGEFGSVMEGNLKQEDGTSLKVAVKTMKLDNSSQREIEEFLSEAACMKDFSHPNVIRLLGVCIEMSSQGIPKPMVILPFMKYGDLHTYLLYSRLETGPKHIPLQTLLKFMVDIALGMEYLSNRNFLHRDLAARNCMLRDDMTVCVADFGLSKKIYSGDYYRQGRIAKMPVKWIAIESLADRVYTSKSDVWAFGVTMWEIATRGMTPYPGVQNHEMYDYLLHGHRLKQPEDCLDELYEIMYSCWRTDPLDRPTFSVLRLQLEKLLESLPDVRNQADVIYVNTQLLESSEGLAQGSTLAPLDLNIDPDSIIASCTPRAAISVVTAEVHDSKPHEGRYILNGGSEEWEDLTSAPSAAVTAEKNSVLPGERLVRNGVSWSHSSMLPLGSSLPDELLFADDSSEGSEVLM
Method in brief: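 IC50 from phospho-Mer ELISA of MERTK-transfected 293A cell lysates after 1 h treatment with serially diluted compound in serum-free medium.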

[3] = molecular target: AXL (phospho-AXL, Gas6-stimulated A-172 glioblastoma cells) (Homo sapiens (Human), UniProt P30530); test: AXL autophosphorylation ELISA in A-172 cells (Example E); conditions: cellular activity; AXL autophosphorylation ELISA in A-172 cells; read-out: Axl IC50
Chain of AXL (phospho-AXL, Gas6-stimulated A-172 glioblastoma cells) (P30530 26-894): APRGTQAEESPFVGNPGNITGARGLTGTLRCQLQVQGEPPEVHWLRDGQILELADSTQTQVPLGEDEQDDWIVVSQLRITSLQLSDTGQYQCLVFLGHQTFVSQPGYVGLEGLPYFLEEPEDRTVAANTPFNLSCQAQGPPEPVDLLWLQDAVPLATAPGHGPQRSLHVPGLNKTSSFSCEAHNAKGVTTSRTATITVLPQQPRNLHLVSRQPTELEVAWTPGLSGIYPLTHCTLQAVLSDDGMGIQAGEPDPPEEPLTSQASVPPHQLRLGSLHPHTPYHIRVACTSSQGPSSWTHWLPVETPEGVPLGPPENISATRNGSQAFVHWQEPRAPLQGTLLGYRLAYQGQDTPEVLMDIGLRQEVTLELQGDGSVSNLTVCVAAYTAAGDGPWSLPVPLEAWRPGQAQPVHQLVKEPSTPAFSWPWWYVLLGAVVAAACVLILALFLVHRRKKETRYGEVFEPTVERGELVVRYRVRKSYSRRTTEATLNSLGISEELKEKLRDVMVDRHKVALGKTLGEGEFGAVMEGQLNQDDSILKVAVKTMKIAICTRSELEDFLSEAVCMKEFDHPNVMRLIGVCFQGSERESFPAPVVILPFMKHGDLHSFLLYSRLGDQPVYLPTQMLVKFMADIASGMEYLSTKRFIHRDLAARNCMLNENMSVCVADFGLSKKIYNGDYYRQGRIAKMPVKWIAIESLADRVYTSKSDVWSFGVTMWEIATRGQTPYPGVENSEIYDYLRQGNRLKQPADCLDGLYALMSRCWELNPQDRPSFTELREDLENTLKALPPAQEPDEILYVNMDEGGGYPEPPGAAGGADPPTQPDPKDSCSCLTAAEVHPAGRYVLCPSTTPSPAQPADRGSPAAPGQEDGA
Method in brief: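 Phospho-AXL was measured by ELISA in lysates of Gas6-stimulated A-172 cells, starved 24 h in serum-free medium and exposed 1 h to an 8-point compound dilution at 0.3% DMSO.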

Chain of Met (phospho-Met, HGF-stimulated PC-3 prostate cancer cells) (P08581 25-1390): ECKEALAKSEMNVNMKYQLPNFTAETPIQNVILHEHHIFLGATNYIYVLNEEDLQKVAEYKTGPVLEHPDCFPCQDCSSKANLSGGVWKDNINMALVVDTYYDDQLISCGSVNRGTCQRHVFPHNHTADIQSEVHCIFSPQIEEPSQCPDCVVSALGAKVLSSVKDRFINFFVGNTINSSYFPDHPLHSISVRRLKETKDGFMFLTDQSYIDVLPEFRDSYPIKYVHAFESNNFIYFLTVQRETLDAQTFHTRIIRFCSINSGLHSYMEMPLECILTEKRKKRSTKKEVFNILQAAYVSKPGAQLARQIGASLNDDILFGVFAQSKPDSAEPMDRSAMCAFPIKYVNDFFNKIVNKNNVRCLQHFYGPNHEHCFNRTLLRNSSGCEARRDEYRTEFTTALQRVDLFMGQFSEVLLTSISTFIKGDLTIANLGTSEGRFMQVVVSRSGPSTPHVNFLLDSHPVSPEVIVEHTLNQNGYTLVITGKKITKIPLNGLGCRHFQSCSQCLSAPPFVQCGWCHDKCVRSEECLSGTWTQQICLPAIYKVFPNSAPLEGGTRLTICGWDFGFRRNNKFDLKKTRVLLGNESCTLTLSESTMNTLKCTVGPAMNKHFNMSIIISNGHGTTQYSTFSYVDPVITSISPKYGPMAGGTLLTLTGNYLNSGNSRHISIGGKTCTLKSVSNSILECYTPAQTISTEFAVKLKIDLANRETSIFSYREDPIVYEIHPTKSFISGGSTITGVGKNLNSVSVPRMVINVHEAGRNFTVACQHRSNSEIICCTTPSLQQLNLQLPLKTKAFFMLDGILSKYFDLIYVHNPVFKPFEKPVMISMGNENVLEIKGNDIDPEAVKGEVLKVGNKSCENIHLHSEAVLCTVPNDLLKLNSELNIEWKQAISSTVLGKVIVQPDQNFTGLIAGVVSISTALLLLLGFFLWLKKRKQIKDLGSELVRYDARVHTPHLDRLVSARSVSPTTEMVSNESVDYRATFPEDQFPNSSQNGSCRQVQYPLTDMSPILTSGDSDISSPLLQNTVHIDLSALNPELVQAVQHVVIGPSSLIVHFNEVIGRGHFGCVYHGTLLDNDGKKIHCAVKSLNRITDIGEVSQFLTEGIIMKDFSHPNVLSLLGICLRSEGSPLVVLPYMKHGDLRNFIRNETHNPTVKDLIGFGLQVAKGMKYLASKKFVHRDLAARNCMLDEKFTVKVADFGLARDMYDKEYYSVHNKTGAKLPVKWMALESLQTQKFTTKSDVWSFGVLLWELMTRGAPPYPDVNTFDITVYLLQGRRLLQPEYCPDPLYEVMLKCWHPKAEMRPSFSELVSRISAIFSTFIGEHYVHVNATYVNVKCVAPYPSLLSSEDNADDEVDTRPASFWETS

Row | SMILES | IC50 [1] [nM] | IC50 [2] [nM] | IC50 [3] [nM]
1 | Cc1nc2c(Oc3ccc(NC(=O)c4cn(C(C)C)c(C)c(-c5ccc(F)cc5)c4=O)cc3F)ccnc2cc1-c1cccnc1 [Compound 620, N-[3-Fluoro-4-[(6-methyl-7-pyridin-3-yl-1,5-naphthyridin-4-yl)oxy]phenyl]-5-(4-fluorophenyl)-6-methyl-4-oxo-1-propan-2-ylpyridine-3-carboxamide] | 100 to 300 | < 100 | 
2 | COc1cc2ncnc(Oc3ccc(NC(=O)c4cn(C(C)C)cc(-c5ccc(F)cc5)c4=O)cc3F)c2nc1OC [Compound 636, N-[4-(6,7-dimethoxypyrido[3,2-d]pyrimidin-4-yl)oxy-3-fluorophenyl]-5-(4-fluorophenyl)-4-oxo-1-propan-2-ylpyridine-3-carboxamide] | < 100 | < 100 | 
3 | COc1cc2ncnc(Oc3ccc(NC(=O)c4cn(-c5cnn(C)c5)cc(-c5ccc(F)cc5)c4=O)cc3F)c2nc1OC [Compound 637, N-[4-(6,7-dimethoxyprido[3,2-d]pyrimidin-4-yl)oxy-3-fluorophenyl]-5-(4-fluorophenyl)-1-(1-methylpyrazol-4-yl)-4-oxopyridine-3-carboxamide] | < 100 | < 100 | 
4 | COc1cc2c(Oc3ccc(NC(=O)c4cnc(C)c(-c5ccc(F)cc5)c4O)cc3F)ccnc2cn1 [Compound 639, N-[3-fluoro-4-[(6-methoxy-1,7-naphthyridin-4-yl)oxy]phenyl]-5-(4-fluorophenyl)-4-hydroxy-6-methylpyridine-3-carboxamide] | < 100 | < 100 | 
5 | COc1cc2c(Oc3ccc(NC(=O)c4cn(C5CC5)c(C)c(-c5ccc(F)cc5)c4=O)cc3F)ccnc2cn1 [Compound 640, 1-cyclopropyl-N-[3-fluoro-4-[(6-methoxy-1,7-naphthyridin-4-yl)oxy]phenyl]-5-(4-fluorophenyl)-6-methyl-4-oxopyridine-3-carboxamide] | < 100 | < 100 | 

Continued, values first:

Row | IC50 [1] [nM] | IC50 [2] [nM] | IC50 [3] [nM] | SMILES
6 | < 100 | < 100 |  | Cc1ncc(C(=O)Nc2ccc(Oc3ccnc4cnc(Cl)cc34)c(F)c2)c(O)c1-c1ccc(F)cc1 [Compound 641, N-[4-[(6-chloro-1,7-naphthyridin-4-yl)oxy]-3-fluorophenyl]-5-(4-fluorophenyl)-4-hydroxy-6-methylpyridine-3-carboxamide]
7 | < 100 | < 100 | < 100 | Cc1ncc(C(=O)Nc2ccc(Oc3ccnc4cnccc34)c(F)c2)c(O)c1-c1ccc(F)cc1 [Compound 642, N-[3-fluoro-4-(1,7-naphthyridin-4-yloxy)phenyl]-5-(4-fluorophenyl)-4-hydroxy-6-methylpyridine-3-carboxamide]
8 | < 100 | < 100 |  | Cc1ncc(C(=O)Nc2ccc(Oc3ccnc4cnccc34)cc2)c(O)c1-c1ccc(F)cc1 [Compound 643, 5-(4-fluorophenyl)-4-hydroxy-6-methyl-N-[4-(1,7-naphthyridin-4-yloxy)phenyl]pyridine-3-carboxamide]
9 | < 100 | < 100 |  | COc1cc2c(Oc3ccc(NC(=O)c4cnc(C)c(-c5ccc(F)cc5)c4O)cc3)ccnc2cn1 [Compound 644, 5-(4-fluorophenyl)-4-hydroxy-N-[4-[(6-methoxy-1,7-naphthyridin-4-yl)oxy]phenyl]-6-methylpyridine-3-carboxamide]
10 | < 100 | < 100 |  | Cc1cc2c(Oc3ccc(NC(=O)c4cnc(C)c(-c5ccc(F)cc5)c4O)cc3F)ccnc2cn1 [Compound 645, N-[3-fluoro-4-[(6-methyl-1,7-naphthyridin-4-yl)oxy]phenyl]-5-(4-fluorophenyl)-4-hydroxy-6-methylpyridine-3-carboxamide]
